Test results reported in US10000582B2, “Ethylsulfonated hyaluronic acid biopolymers and methods of use thereof” (The Regents of the University of California, priority 2013, dated 2018).

Tested on: platelets (platelet rich plasma)
Experiment: Platelet adhesion assay (SEM imaging)
Format: cell-based
Description: Platelet adhesion experiments were visualized by scanning electron microscope (SEM) imaging (FIG. 7).

heparin
platelet aggregation on the material: no aggregation of platelets
